Here are results for seven compounds from PMC6152407, “Molecular Mechanisms Underlying Inhibitory Binding of Alkylimidazolium Ionic Liquids to Laccase” (Molecules : A Journal of Synthetic Chemistry and Natural …, 2017).

Data set [1] deals with Tve laccase. The note with it: ABTS, pH 3, cited from earlier work.
The subject of data set [2] is Myceliophthora thermophila (Mth) laccase. It counts as biochemical. Here is the method:
(§1) Reaction velocities (vo) were determined by mixing 50 μL of the properly diluted enzyme, 50 μL of substrate solution, and 2.4 mL of the media containing phosphate–citrate buffer (30 mM) and ILs in a 1 cm × 1 cm × 4 cm quartz colorimetric cell. […] All the reported data were averaged from at least three parallel measurements.

For data set [3], the system named is Mth laccase.
The target of data set [4] is Myceliophthora thermophila (Mth) laccase. Kind of data set: Inhibition kinetics of laccase/ABTS oxidation (Lineweaver–Burk). The note with it: laccase/ABTS oxidation at pH 3; read-out: competitive inhibition constant Kic. It is filed as biochemical. Here is the method:
as §1
A series of vo were measured under varied concentrations of substrate ([S]) and IL ([I]). The Lineweaver–Burk diagrams were then constructed by plotting 1/vo against 1/[S] to estimate Km and Vmax according to Equation (1). The features of inhibition by different ILs were also deduced from the diagrams. Ki was correspondingly calculated from Equations (2), (3) or (4).
(2) (Competitive) 1/v0=KM/Vmax[S](1+[I]/Kic)+ 1/Vmax

Details of data set [5]: method as in PMID 26556325. Conditions: 80% aqueous solution; cited from earlier work.
A short description of data set [6]: Stability of ABTS cation radicals in ILs/buffer media. The note with it: 30 mM buffer without IL. Here is the method:
ABTS cation radicals (ABTS^+) were obtained from the oxidation of ABTS (10 mmol/L) with the laccase (50 U/L) in […] phosphate–citrate buffer (pH 3) at 40 °C for 2 h. Then, the reaction mixtures were centrifuged in an ultrafiltration tube (molecular weight cutoff 10 kDa; Millipore, Bedford, MA, USA) at 9000× g for 10 min). Enzymes and polymerized substances were removed. The oxidized products were incubated with buffer (30 mM, pH 2~7) and ionic liquids (50 mM) at 25 °C for 6 min. The concentration of each product was monitored by the spectrophotometer.

On to `[Cl-].[Na+]` [NaCl], for which the “uncompetitive constant Kiu” value in data set [1] is recorded as 18.1 mM. Also, the Ki in data set [1] (read-out: competitive constant Kic) was 350 µM.

With `CCCCn1cc[n+](C)c1.[Cl-]` [[Bmim]Cl], the retained laccase activity in data set [2] (pH 3) was 65~75%. The “initial activity retained by re-dissolved complex” value in data set [3] is listed as 65%.

Consider `CCCCCCCCCCn1cc[n+](C)c1` [[Dmim]Cl], for which the “laccase inactivation” value in data set [2] (50 mM IL, ABTS, pH 3 (Figure 2d)) is on record as “almost completely inactivated”. In data set [4], the Ki came to 180 µM.

For the compound `CCCCCCCC[n+]1ccn(C)c1` [[Omim]Cl], the Ki in data set [4] is 2150 µM.

For `CC(C)=O` [acetone], the “time for 50% reduction of ABTS^+” value in data set [5] is reported as at most 7 min.

In the case of ABTS^+, the entries for the “half-life of ABTS^+” value in data set [6] (pH 2) and in data set [6] (pH 7) were 6.17 h and 0.728 h, respectively.

For the compound KCl, the “activity loss compared with other salts” value in data set [2] (pH 3) is given as “more activity loss than alkylimidazolium chlorides”.
